Source: publication PMC2837466 (Journal of chromatography. B, Analytical technologies in …, 2010)

Target: human serum albumin (HSA) (Homo sapiens, UniProt P02768)
Test: high-performance affinity chromatography, frontal analysis
Format: binding

Chain of human serum albumin (HSA) (P02768 25-609): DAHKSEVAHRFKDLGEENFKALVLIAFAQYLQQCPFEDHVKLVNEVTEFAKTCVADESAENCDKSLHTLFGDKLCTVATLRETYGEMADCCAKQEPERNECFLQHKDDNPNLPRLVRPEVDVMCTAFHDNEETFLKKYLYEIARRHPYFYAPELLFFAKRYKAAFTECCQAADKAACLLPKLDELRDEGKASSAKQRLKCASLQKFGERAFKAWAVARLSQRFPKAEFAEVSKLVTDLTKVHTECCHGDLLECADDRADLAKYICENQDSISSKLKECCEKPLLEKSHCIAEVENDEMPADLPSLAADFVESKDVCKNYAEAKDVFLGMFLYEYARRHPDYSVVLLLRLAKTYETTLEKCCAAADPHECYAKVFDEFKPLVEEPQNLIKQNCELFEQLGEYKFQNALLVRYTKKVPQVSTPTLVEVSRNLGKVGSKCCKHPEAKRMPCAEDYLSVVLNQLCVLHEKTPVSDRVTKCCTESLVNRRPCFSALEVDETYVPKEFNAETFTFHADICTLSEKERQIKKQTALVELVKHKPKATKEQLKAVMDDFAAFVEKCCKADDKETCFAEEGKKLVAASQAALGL

- Kd: 21.3 µM
Compound: CCN(CC)CC(=O)Nc1c(C)cccc1C [lidocaine]
